According to PubChem BioAssay (NCI):
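Assay format: 96-well plates, 48-hour exposure. GI50 = concentration required for 50% inhibition of growth. TGI marks complete inhibition of growth.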

Assays:
Assay in all cases: growth of human tumour cells (NCI), 48 h
[1] = system: K-562 leukemia
[2] = system: MDA-MB-468 breast
[3] = system: SNB-75 CNS
[4] = system: LOX IMVI melanoma
[5] = system: NCI-H23 lung
[6] = system: UACC-62 melanoma
[7] = system: UO-31 renal
[8] = system: SF-268 CNS
[9] = system: ACHN renal
[10] = system: HCT-116 colon
[11] = system: OVCAR-4 ovarian
[12] = system: HCT-15 colon
[13] = system: NCI/ADR-RES ovarian
[14] = system: SF-539 CNS
[15] = system: HOP-92 NSCLC
[16] = system: SNB-19 CNS
[17] = system: SF-295 CNS
[18] = system: T-47D breast
[19] = system: HS 578T breast
[20] = system: OVCAR-3 ovarian
[21] = system: KM12 colon
[22] = system: RXF 393 renal
[23] = system: IGROV1 ovarian
[24] = system: RPMI-8226 leukemia
[25] = system: SN12C renal
[26] = system: MDA-MB-231 breast
[27] = system: 786-0 renal
[28] = system: DU-145 prostate
[29] = system: NCI-H226 lung
[30] = system: NCI-H460 lung
[31] = system: HL-60(TB) leukemia
[32] = system: M14 melanoma
[33] = system: HCC-2998 colon
[34] = system: HOP-62 NSCLC
[35] = system: TK-10 renal
[36] = system: A549 NSCLC
[37] = system: OVCAR-5 ovarian
[38] = system: CAKI-1 renal
[39] = system: SK-OV-3 ovarian
[40] = system: BT-549 breast
[41] = system: MALME-3M melanoma
[42] = system: HT29 colon
[43] = system: MOLT-4 leukemia
[44] = system: SK-MEL-2 melanoma
[45] = system: COLO 205 colon
[46] = system: PC-3 prostate
[47] = system: SR leukemia
[48] = system: NCI-H522 lung
[49] = system: EKVX NSCLC
[50] = system: U251 CNS
[51] = system: CCRF-CEM leukemia
[52] = system: SW-620 colon
[53] = system: SK-MEL-5 melanoma
[54] = system: SK-MEL-28 melanoma
[55] = system: MCF7 breast
[56] = system: MDA-MB-435
[57] = system: UACC-257 melanoma
[58] = system: A498 renal
[59] = system: OVCAR-8 ovarian

O=C(CSc1nnc(-c2ccc(-c3nc4ccc(Cl)cc4[nH]3)cc2)o1)Nc1ccc(Br)cc1
GI50 [1]: 2.49 µM | TGI [1]: 11.8 µM | GI50 [2]: 2.66 µM | TGI [2]: 9.97 µM | GI50 [3]: 2.39 µM | TGI [3]: 8.71 µM | GI50 [4]: 1.42 µM | TGI [4]: 2.8 µM | GI50 [5]: 2 µM | TGI [5]: 4.49 µM | GI50 [6]: 1.84 µM | TGI [6]: 4.61 µM | GI50 [7]: 4.03 µM | TGI [7]: 16.5 µM | GI50 [8]: 3.45 µM | TGI [8]: 16.8 µM | GI50 [9]: 2.4 µM | TGI [9]: 6.78 µM | GI50 [10]: 3.22 µM | TGI [10]: 14.4 µM | GI50 [11]: 4.81 µM | TGI [11]: 19.3 µM | GI50 [12]: 2.94 µM | TGI [12]: 13.6 µM | GI50 [13]: 4.93 µM | TGI [13]: 30.3 µM | GI50 [14]: 1.65 µM | TGI [14]: 3.08 µM | GI50 [15]: 2.43 µM | TGI [15]: 9.03 µM | GI50 [16]: 3.76 µM | TGI [16]: 14.3 µM | GI50 [17]: 1.93 µM | TGI [17]: 4.99 µM | GI50 [18]: 3.78 µM | TGI [18]: 20.2 µM | GI50 [19]: 2.62 µM | TGI [19]: 9.96 µM | GI50 [20]: 3.72 µM | TGI [20]: 11.7 µM | GI50 [21]: 6 µM | TGI [21]: 31.8 µM | GI50 [22]: 1.98 µM | TGI [22]: 5.15 µM | GI50 [23]: 8.27 µM | TGI [23]: 21.5 µM | GI50 [24]: 5.05 µM | TGI [24]: 26.3 µM | GI50 [25]: 1.74 µM | TGI [25]: 4.09 µM | GI50 [26]: 1.76 µM | TGI [26]: 3.59 µM | GI50 [27]: 2.23 µM | TGI [27]: 5.5 µM | GI50 [28]: 4.56 µM | TGI [28]: 19.3 µM | GI50 [29]: 1.62 µM | TGI [29]: 4.58 µM | GI50 [30]: 2.34 µM | TGI [30]: 6.32 µM | GI50 [31]: 2.87 µM | TGI [31]: 11.5 µM | GI50 [32]: 3.06 µM | TGI [32]: 11.1 µM | GI50 [33]: 15.3 µM | TGI [33]: 46.5 µM | GI50 [34]: 1.81 µM | TGI [34]: 3.96 µM | GI50 [35]: 16.5 µM | TGI [35]: 33.4 µM | GI50 [36]: 1.79 µM | TGI [36]: 3.95 µM | GI50 [37]: 3.71 µM | TGI [37]: 17.5 µM | GI50 [38]: 2.34 µM | TGI [38]: 7.01 µM | GI50 [39]: 8.75 µM | TGI [39]: 27.5 µM | GI50 [40]: 2.95 µM | TGI [40]: 8.55 µM | GI50 [41]: 1.94 µM | TGI [41]: 4.84 µM | GI50 [42]: 3.42 µM | TGI [42]: 13.3 µM | GI50 [43]: 2.99 µM | TGI [43]: 14.2 µM | GI50 [44]: 2.98 µM | TGI [44]: 11.1 µM | GI50 [45]: 24.5 µM | TGI [45]: > 100 µM | GI50 [46]: 2.1 µM | TGI [46]: 5.78 µM | GI50 [47]: 1.67 µM | TGI [47]: > 100 µM | GI50 [48]: 1.84 µM | TGI [48]: 5.01 µM | GI50 [49]: 3.33 µM | TGI [49]: 14.6 µM | GI50 [50]: 1.88 µM | TGI [50]: 3.82 µM | GI50 [51]: 2.31 µM | TGI [51]: 10.4 µM | GI50 [52]: 4.3 µM | TGI [52]: 28.5 µM | GI50 [53]: 2.98 µM | TGI [53]: 11.1 µM | GI50 [54]: 1.77 µM | TGI [54]: 3.81 µM | GI50 [55]: 3.02 µM | TGI [55]: 12.9 µM | GI50 [56]: 3.84 µM | TGI [56]: 14.3 µM | GI50 [57]: 2.97 µM | TGI [57]: 12.8 µM | GI50 [58]: 17.3 µM | TGI [58]: 34.3 µM | GI50 [59]: 2.17 µM | TGI [59]: 5.63 µM

O=C(N=Nc1c(O)[nH]c2ccc(Br)cc12)c1ccc2nc(-c3ccccc3)[nH]c2c1
GI50 [1]: 1.29 µM | TGI [1]: 6.99 µM | GI50 [2]: 1.61 µM | TGI [2]: 3.06 µM | GI50 [3]: 2.11 µM | TGI [3]: 5.62 µM | GI50 [4]: 1.23 µM | TGI [4]: 2.51 µM | GI50 [5]: 1.53 µM | TGI [5]: 3.65 µM | GI50 [6]: 1.75 µM | TGI [6]: 3.37 µM | GI50 [7]: > 100 µM | TGI [7]: > 100 µM | GI50 [8]: 2 µM | TGI [8]: 4.6 µM | GI50 [9]: 8.96 µM | TGI [9]: > 100 µM | GI50 [10]: 3.24 µM | TGI [10]: 12.8 µM | GI50 [11]: 1.99 µM | TGI [11]: 4.26 µM | GI50 [12]: 18.6 µM | TGI [12]: > 100 µM | GI50 [13]: > 100 µM | TGI [13]: > 100 µM | GI50 [14]: 1.77 µM | TGI [14]: 3.43 µM | GI50 [15]: 2.17 µM | TGI [15]: 6.63 µM | GI50 [16]: 1.79 µM | TGI [16]: 4.35 µM | GI50 [17]: 1.86 µM | TGI [17]: 3.78 µM | GI50 [18]: 1.07 µM | TGI [18]: 2.52 µM | GI50 [19]: 1.86 µM | TGI [19]: 4.83 µM | GI50 [20]: 2.14 µM | TGI [20]: 4.26 µM | GI50 [21]: 22 µM | TGI [21]: > 100 µM | GI50 [22]: 2.57 µM | TGI [22]: 6.6 µM | GI50 [23]: 3.03 µM | TGI [23]: 13.2 µM | GI50 [24]: 17.2 µM | TGI [24]: > 100 µM | GI50 [25]: 1.86 µM | TGI [25]: 4.11 µM | GI50 [26]: 1.69 µM | TGI [26]: 3.18 µM | GI50 [27]: 2.01 µM | TGI [27]: 3.91 µM | GI50 [28]: 1.95 µM | TGI [28]: 4.06 µM | GI50 [29]: 2.03 µM | TGI [29]: 5.43 µM | GI50 [30]: 1.79 µM | TGI [30]: 3.53 µM | GI50 [31]: 2.54 µM | TGI [31]: 6.73 µM | GI50 [32]: 1.95 µM | TGI [32]: 4.14 µM | GI50 [33]: 1.48 µM | TGI [33]: 3.11 µM | GI50 [34]: 1.69 µM | TGI [34]: 3.36 µM | GI50 [35]: 3.61 µM | TGI [35]: 70.1 µM | GI50 [36]: 2.22 µM | TGI [36]: 7.41 µM | GI50 [37]: 3.72 µM | TGI [37]: 27.1 µM | GI50 [38]: > 100 µM | TGI [38]: > 100 µM | GI50 [39]: 1.97 µM | TGI [39]: 4.29 µM | GI50 [40]: 3.55 µM | TGI [40]: 26.5 µM | GI50 [41]: 1.62 µM | TGI [41]: 3.35 µM | GI50 [42]: 2.66 µM | TGI [42]: 8.75 µM | GI50 [43]: 1.34 µM | TGI [43]: 4.01 µM | GI50 [44]: 2.17 µM | TGI [44]: 4.78 µM | GI50 [45]: 2.53 µM | TGI [45]: 6.95 µM | GI50 [46]: 2.92 µM | TGI [46]: > 100 µM | GI50 [48]: 1.38 µM | TGI [48]: 3.1 µM | GI50 [49]: 3 µM | TGI [49]: 11.2 µM | GI50 [50]: 0.418 µM | TGI [50]: 1.59 µM | GI50 [51]: 3.18 µM | TGI [51]: > 100 µM | GI50 [52]: 1.82 µM | TGI [52]: 3.61 µM | GI50 [53]: 3.38 µM | TGI [53]: 12.1 µM | GI50 [54]: 1.79 µM | TGI [54]: 3.42 µM | GI50 [55]: 1.7 µM | TGI [55]: 5.09 µM | GI50 [56]: 2.32 µM | TGI [56]: 4.93 µM | GI50 [57]: 3.27 µM | TGI [57]: 21.7 µM | GI50 [58]: 3.55 µM | TGI [58]: 17.9 µM | GI50 [59]: 1.53 µM | TGI [59]: 3.76 µM
